Test results reported in patent publication US20120064513A1, “Cell Sensor, And Monitoring Method Using Same For The Real-Time Monitoring Of Cell Capacitance” (Industry-Acaddemic Cooperation Foundation, Yonsei …, priority 2009, published 2012).

B1: TRAIL: cell death-inducing agent, TRAIL (TNF related apoptosis inducing ligand) (protein, UniProt P50591 1-281, looked up)
Tumor necrosis factor ligand …: MAMMEVQGGPSLGQTCVLIVIFTVLLQSLCVAVTYVYFTNELKQMQDKYSKSGIACFLKEDDSYWDPNDEESMNSPCWQVKWQLRQLVRKMILRTSEETISTVQEKQQNISPLVRERGPQRVAAHITGTRGRSNTLSSPNSKNEKALGRKINSWESSRSGHSFLSNLHLRNGELVIHEKGFYYIYSQTYFRFQEEIKENTKNDKQMVQYIYKYTSYPDPILLMKSARNSCWSKDAEYGLYSIYQGGIFELKENDRIFVSVTNEHLIDMDHEASFFGAFLVG

System: HEP1 cell highly expressing CAR (coxsackie and adenovirus receptor)
Test: real-time monitoring of cell capacitance with the cell sensor, HEP1 cells
Assay type: cell-based
Description: The cell sensor 100 is connected to an LCR meter to measure capacitance, thereby monitoring potential changes of the cell 200 in real time. At this time, 10 mV of AC voltage at a frequency of 3 KHz is applied to the cell sensor 100. In this regard, the frequency of AC voltage applied to the cell sensor 100 may vary depending on the gap size between the first electrode 121 and the second electrode 122, and any frequency other than 3 KHz is also possible, as long as it is a low frequency.
A method for monitoring a cell condition in real time using the cell sensor according to the preferred embodiment of the present invention is as follows.
First, the aforementioned cell sensor is fabricated. The fabricated electrode is sterilized using autoclave equipment and ethanol, and then the well made of acryl or PDMS is attached on the electrode for cell culture.
Next, cells grown to a predetermined density are harvested with trypsin-EDTA, and introduced and attached onto the gap area between the electrodes using a pipette.
Subsequently, the cell-loaded electrodes are placed in a 5% CO2 cell culture incubator at 37° C. and incubated for 12 hrs, in order to tightly attach the cells onto the gap between the electrodes. During incubation, the cells are observed under an optical microscope, whether their conditions are suitable for the experiment.
Thereafter, the fluidic channel is mounted onto the electrodes where the cells are tightly attached, and is fixed on the stage of an optical microscope, of which the bottom is maintained at 37° C. Then, a cell culture media and at least one of biomolecules, cell death-inducing agents and metal particles for observation of endocytosis or adsorption is introduced through the inlet of the fluidic channel. […]
During the cell cultivation, capacitance between the first electrode and the second electrode is measured in real time, and thus endocytosis of the biomolecules into the cells through the cell surface receptor or adsorption is monitored in real time.

[1] = HEP1 cells, pretreatment then virus 1*10^5 per chamber

| Molecule | capacitance after the initial peak, virus after pretreatment of the cells [1] | initial capacitance peak on virus endocytosis after pretreatment of the cells [1] | cell capacitance during cell death by cell death-inducing agent (HEP-1 cells, final concentration 50 ng/ml) |
| --- | --- | --- | --- |
| NC(=O)c1ncn([C@@H]2O[C@H](CO)[C@@H](O)[C@H]2O)n1 [Ribavirin] | the capacitance after the peak decreases | the initial peak appears | – |
| B1 | – | – | capacitance decreases during cell death |
